Data as given in patent publication US5776955A, “Use of unsubstituted and substituted n-(pyrrol-1-yl)pyridinamines as anticonvulsant agents” (Hoechst Marion Roussel, Inc., priority 1996, dated 1998).

Tests used:
sodium channels = conditions: 25 nM [^3 H]batrachotoxin, rat cortex vesicular preparation, 60 min, 25° C., pH 7.4; read-out: IC50, Inhibition of [^3 H]Batrachotoxin Binding
mice = experiment: Supramaximal electroshock in mice (block of tonic seizure); assay type: in vivo, mouse (male CD-1); conditions: intraperitoneal, male CD-1 mice
Experimental: This procedure is used as to predict anticonvulsant activity of a test compound in vivo by its ability to block a full tonic seizure induced by a supramaximal electroshock stimulation as an indication of efficacy in preventing grand mal seizures. Male CD-1 mice (Charles River) weighing 18-30 grams were housed in accordance with the "NIH Guide to Care and Use of Laboratory Animals" (National Institutes of Health Care Publication 85-23, revised 1985) with a 12 hour light/dark cycle and free access to food and water. On the day of testing, animals are brought to the laboratory and randomly assigned to groups of six for the time course experiments and to test groups of ten for the dose-response experiments. The apparatus used for the test was the Wahlquist Electroshock Stimulator (Model H), which has a power source of 120 volts ac. A current of 15.5 mA lasting for 300 msec was delivered by placing the terminals of the stimulator across the eyes of the animal. This stimulus results in a tonic seizure, defined as a brief period of hindlimb flexion followed by a prolonged period of hindlimb extension. […] Protection is calculated as a normalized percent inhibition relative to a vehicle treated control group. A time course is performed to determine the peak time of drug action and then a dose response performed at the peak time to determine drug potency. Mice are dosed in a randomized fashion using a total of 4 dose groups and one vehicle control group. The ED50 value and 95% confidence limits are calculated by a computerized Litchfield and Wilcoxon analysis. Drugs are prepared dissolved in distilled water and, if insoluble a drop of surfactant is added. Drugs are routinely administered intraperitoneally for this test and given in a dosage volume of 10 ml/kg.

membrane sodium channels = conditions: Willow and Catterall, 1982; Olsen, 1986; cited from earlier work

CCCN(c1ccncc1F)n1cc(C)c2cc(O)ccc21 [1-[(3-Fluoro-4-pyridinyl)propylamino]-3-methyl-1H-indol-5-ol]
IC50 (sodium channels): 19 µM

CCCN(c1ccncc1)n1cc(C)c2ccccc21.O=C(O)/C=C\C(=O)O [3-Methyl-N-propyl-N-(4-pyridinyl)-1H-indol-1-amine maleate]
ED50 (mice; Mus musculus, ip, at peak time of drug action, read-out: ED50, inhibition of supramaximal electroshock): 14.4 mg/kg

NC(=O)N1c2ccccc2C=Cc2ccccc21 [Carbamazepine]
allosteric inhibition of [^3 H]batrachotoxin binding (membrane sodium channels): allosterically inhibit the binding of [^3 H]batrachotoxin to membrane sodium channels

CCCN(c1ccncc1F)n1cc(C)c2ccccc21.Cl [N-(3-Fluoro-4-pyridinyl)-N-propyl-3-methyl-1H-indol-1-amine hydrochloride]
percent inhibition (protection), supramaximal electroshock (mice; 30 mpk): 50% | percent inhibition (protection), supramaximal electroshock (mice; 60 mpk): 50%
